Reference: ChEMBL document CHEMBL5154925, “Design and Optimization of Thienopyrimidine Derivatives as Potent and Selective PI3Kδ Inhibitors for the Treatment of B-Cell Malignancies” (J Med Chem, 2022)
pIC50: −log10 of the molar value. ≈ marks a conversion by molar mass, not a printed value.

How the values were obtained:
[1] = Microsomal stability in mouse liver microsomes assessed as intrinsic clearance; type: ADME, Microsome; conditions: read-out: CLH
[2] = molecular target: Phosphatidylinositol 4,5-bisphosphate 3-kinase catalytic subunit alpha isoform (Homo sapiens, UniProt P42336); experiment: Inhibition of PI3Kalpha (unknown origin) using PIP2 as substrate measured after 1 hr in presence of ATP by ADP-glo luminescence assay
[3] = molecular target: T1, Phosphatidylinositol 4,5-bisphosphate 3-kinase catalytic subunit beta isoform (Homo sapiens, UniProt P42338); experiment: Inhibition of PI3Kbeta (unknown origin) using PIP2 as substrate measured after 1 hr in presence of ATP by ADP-glo luminescence assay
[4] = molecular target: Phosphatidylinositol 4,5-bisphosphate 3-kinase catalytic subunit gamma isoform (Homo sapiens, UniProt P48736); experiment: Inhibition of PI3Kgamma (unknown origin) using PIP2 as substrate measured after 1 hr in presence of ATP by ADP-glo luminescence assay
[5] = molecular target: Serine/threonine-protein kinase mTOR (Homo sapiens, UniProt P42345); experiment: Inhibition of mTOR (unknown origin)
[6] = molecular target: Phosphatidylinositol 4,5-bisphosphate 3-kinase catalytic subunit alpha isoform (Mus musculus, UniProt P42337); experiment: Inhibition of PI3Kalpha in IGF-1 stimulated mouse C2C12 cells incubated for 10 mins by AlphaLISA assay; type: cell-based
[7] = molecular target: T1, Phosphatidylinositol 4,5-bisphosphate 3-kinase catalytic subunit beta isoform; experiment: Inhibition of PI3Kbeta in LPA stimulated human PC-3 cells incubated for 10 mins by AlphaLISA assay; type: cell-based
[8] = molecular target: Phosphatidylinositol 4,5-bisphosphate 3-kinase catalytic subunit gamma isoform (Mus musculus, UniProt Q9JHG7); experiment: Inhibition of PI3Kgamma in C5a stimulated mouse RAW264.7 cells incubated for 10 mins by AlphaLisa assay; type: cell-based
DOHH-2 = experiment: Antiproliferative activity against human DOHH-2 cells assessed as cell growth inhibition incubated for 96 hrs by cell titer glo assay; type: functional, cell-based; conditions: DOHH-2, 96 h
[9] = Solubility of the compound in PBS; type: physicochemical
[10] = Plasma protein binding in mouse; type: ADME, cell-free; conditions: read-out: PPB (converted)
[11] = Microsomal stability in mouse liver microsomes assessed as half life; type: ADME, Microsome
[12] = Solubility of the compound in FaSSIF; type: physicochemical
SU-DHL-6 = experiment: Antiproliferative activity against human SU-DHL-6 cells assessed as cell growth inhibition incubated for 96 hrs by cell titer glo assay; type: functional, cell-based; conditions: SU-DHL-6, 96 h
Pfeiffer [13] = experiment: Antiproliferative activity against human Pfeiffer cells assessed as cell growth inhibition incubated for 96 hrs by cell titer glo assay; type: functional, cell-based
SUD4 = experiment: Antiproliferative activity against human SU-DHL-4 cells assessed as cell growth inhibition incubated for 96 hrs by cell titer glo assay; type: functional, cell-based; conditions: SU-DHL-4, 96 h
JeKo-1 = experiment: Antiproliferative activity against human JeKo-1 cells assessed as cell growth inhibition incubated for 96 hrs by cell titer glo assay; type: functional, cell-based; conditions: JeKo-1, 96 h
Z-138 = experiment: Antiproliferative activity against human Z138 cells assessed as cell growth inhibition incubated for 96 hrs by cell titer glo assay; type: functional, cell-based; conditions: Z-138, 96 h
Rec1 = experiment: Antiproliferative activity against human REC1 cells assessed as cell growth inhibition incubated for 96 hrs by cell titer glo assay; type: functional, cell-based; conditions: Rec1, 96 h
Pfeiffer [14] = experiment: Induction of apoptosis in human Pfeiffer cells assessed as viable […] cells at 2 uM incubated for 48 hrs by annexin V-FITC staining based flow cytometry (reference value: 81.14 %); type: functional
Pfeiffer [15] = experiment: Induction of apoptosis in human Pfeiffer cells assessed as early apoptotic cells at 2 uM incubated for 48 hrs by annexin V-FITC staining based flow cytometry (reference value: 4.16 %); type: functional
Pfeiffer [16] = experiment: Induction of apoptosis in human Pfeiffer cells assessed as late apoptotic cells at 2 uM incubated for 48 hrs by annexin V-FITC staining based flow cytometry (reference value: 7.87 %); type: functional
Pfeiffer [17] = experiment: Induction of apoptosis in human Pfeiffer cells assessed as necrotic cells at 2 uM incubated for 48 hrs by annexin V-FITC staining based flow cytometry (reference value: 6.62 %); type: functional
Pfeiffer [18] = experiment: Induction of apoptosis in human Pfeiffer cells assessed as viable […] cells at 10 uM incubated for 48 hrs by annexin V-FITC staining based flow cytometry (reference value: 81.14 %); type: functional
Pfeiffer [19] = experiment: Induction of apoptosis in human Pfeiffer cells assessed as early apoptotic cells at 10 uM incubated for 48 hrs by annexin V-FITC staining based flow cytometry (reference value: 4.16 %); type: functional
Pfeiffer [20] = experiment: Induction of apoptosis in human Pfeiffer cells assessed as late apoptotic cells at 10 uM incubated for 48 hrs by annexin V-FITC staining based flow cytometry (reference value: 7.87 %); type: functional
Pfeiffer [21] = experiment: Induction of apoptosis in human Pfeiffer cells assessed as necrotic cells at 10 uM incubated for 48 hrs by annexin V-FITC staining based flow cytometry (reference value: 6.62 %); type: functional
Pfeiffer [22] = experiment: Antitumor activity against human Pfeiffer cells xenografted in nude mouse assessed as tumor growth inhibition at 30 mg/kg, po BID for 21 days and measured twice weekly; type: functional; conditions: 504 h, time 21 day, read-out: TGI
[23] = Toxicity in nude mouse xenografted with human Pfeiffer cells assessed as effect on body weight at 30 mg/kg, po BID for 21 days and measured twice weekly; type: organism-based; conditions: in vivo, 504 h, time 21 day

T1 sequence (P42338 whole entry, canonical isoform): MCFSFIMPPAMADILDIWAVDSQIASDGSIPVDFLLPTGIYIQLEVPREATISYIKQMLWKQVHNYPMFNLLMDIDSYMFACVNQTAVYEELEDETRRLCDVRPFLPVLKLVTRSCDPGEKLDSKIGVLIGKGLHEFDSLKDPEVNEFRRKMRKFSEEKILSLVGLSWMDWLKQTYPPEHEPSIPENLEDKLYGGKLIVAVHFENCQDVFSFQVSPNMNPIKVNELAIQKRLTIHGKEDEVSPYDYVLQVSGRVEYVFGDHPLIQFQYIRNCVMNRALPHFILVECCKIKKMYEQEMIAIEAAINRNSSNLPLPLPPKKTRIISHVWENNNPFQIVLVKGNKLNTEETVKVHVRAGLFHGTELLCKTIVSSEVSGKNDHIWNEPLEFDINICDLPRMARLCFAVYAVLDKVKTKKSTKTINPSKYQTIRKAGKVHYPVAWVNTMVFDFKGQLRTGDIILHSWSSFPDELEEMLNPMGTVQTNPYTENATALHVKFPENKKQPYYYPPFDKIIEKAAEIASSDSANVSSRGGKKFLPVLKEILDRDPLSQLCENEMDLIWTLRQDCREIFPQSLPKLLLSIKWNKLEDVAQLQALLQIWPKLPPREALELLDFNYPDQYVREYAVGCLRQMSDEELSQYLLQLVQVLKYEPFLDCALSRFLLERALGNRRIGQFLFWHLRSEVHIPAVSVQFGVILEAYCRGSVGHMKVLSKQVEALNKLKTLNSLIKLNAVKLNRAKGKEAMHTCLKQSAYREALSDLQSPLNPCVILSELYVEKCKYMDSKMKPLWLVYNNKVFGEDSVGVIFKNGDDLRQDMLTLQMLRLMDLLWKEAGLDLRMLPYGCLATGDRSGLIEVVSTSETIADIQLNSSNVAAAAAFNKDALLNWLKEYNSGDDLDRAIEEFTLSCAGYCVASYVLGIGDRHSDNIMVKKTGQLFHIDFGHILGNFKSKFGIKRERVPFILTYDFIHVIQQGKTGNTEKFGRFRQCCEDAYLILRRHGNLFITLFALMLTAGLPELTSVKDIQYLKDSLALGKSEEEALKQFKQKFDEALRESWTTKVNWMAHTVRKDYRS
Chain of Phosphatidylinositol 4,5-bisphosphate 3-kinase catalytic subunit alpha isoform (Mus musculus, UniProt P42337) (P42337 whole entry, canonical isoform): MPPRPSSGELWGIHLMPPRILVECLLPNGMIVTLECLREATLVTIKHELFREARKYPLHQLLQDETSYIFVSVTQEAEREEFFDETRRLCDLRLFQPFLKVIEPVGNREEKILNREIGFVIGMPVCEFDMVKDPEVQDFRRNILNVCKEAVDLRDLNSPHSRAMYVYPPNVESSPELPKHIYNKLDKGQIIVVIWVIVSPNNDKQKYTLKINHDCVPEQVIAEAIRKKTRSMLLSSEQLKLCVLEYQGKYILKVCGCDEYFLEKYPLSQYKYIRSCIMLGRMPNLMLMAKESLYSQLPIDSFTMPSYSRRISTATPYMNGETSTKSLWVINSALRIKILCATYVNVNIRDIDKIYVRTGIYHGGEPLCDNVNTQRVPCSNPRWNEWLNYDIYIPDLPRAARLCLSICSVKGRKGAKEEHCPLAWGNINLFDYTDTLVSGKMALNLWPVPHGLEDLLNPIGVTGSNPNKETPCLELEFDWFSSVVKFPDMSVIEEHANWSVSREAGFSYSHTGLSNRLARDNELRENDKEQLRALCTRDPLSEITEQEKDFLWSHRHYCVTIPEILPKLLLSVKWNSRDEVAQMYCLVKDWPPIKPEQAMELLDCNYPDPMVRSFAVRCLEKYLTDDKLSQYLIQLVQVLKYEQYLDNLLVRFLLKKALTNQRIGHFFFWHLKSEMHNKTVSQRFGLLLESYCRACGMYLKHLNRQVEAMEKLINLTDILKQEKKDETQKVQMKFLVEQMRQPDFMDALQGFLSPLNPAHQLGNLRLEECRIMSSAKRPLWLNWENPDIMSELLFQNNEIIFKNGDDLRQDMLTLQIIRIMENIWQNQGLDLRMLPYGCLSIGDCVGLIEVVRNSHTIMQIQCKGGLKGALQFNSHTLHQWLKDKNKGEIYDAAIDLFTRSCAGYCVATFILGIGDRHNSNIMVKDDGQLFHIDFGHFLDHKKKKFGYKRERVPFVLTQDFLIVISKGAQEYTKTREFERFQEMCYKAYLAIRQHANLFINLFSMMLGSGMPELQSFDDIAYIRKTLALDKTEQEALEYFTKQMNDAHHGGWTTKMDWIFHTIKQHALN
Chain of Phosphatidylinositol 4,5-bisphosphate 3-kinase catalytic subunit gamma isoform (Homo sapiens, UniProt P48736) (P48736 whole entry, canonical isoform): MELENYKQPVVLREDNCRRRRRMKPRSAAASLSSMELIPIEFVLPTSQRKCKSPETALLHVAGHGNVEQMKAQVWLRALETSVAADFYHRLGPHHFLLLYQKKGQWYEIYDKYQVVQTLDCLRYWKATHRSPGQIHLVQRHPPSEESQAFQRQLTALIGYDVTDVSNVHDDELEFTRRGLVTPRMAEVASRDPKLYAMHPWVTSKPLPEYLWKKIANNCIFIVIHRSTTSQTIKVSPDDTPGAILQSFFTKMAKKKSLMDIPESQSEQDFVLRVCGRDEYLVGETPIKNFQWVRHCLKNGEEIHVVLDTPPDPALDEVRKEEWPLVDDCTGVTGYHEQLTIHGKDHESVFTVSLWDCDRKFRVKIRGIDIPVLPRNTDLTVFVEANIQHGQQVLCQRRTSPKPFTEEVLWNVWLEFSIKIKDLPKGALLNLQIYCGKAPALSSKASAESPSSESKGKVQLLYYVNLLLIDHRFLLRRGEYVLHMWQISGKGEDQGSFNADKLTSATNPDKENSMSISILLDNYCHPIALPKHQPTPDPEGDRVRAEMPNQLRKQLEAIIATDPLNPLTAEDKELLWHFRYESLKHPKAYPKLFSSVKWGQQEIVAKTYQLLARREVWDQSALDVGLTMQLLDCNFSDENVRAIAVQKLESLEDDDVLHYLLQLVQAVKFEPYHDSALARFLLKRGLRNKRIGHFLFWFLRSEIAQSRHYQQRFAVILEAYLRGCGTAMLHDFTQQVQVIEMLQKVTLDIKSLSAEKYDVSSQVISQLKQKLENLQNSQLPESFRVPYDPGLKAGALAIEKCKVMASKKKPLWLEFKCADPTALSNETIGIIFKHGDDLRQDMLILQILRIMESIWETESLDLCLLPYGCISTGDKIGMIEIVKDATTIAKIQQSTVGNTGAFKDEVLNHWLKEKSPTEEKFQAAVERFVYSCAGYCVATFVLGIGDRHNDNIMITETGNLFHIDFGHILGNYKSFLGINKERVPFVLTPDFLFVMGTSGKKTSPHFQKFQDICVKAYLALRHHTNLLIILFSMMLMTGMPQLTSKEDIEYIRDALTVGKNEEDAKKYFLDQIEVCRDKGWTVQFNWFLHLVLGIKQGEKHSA
Chain of Phosphatidylinositol 4,5-bisphosphate 3-kinase catalytic subunit gamma isoform (Mus musculus, UniProt Q9JHG7) (Q9JHG7 whole entry, canonical isoform): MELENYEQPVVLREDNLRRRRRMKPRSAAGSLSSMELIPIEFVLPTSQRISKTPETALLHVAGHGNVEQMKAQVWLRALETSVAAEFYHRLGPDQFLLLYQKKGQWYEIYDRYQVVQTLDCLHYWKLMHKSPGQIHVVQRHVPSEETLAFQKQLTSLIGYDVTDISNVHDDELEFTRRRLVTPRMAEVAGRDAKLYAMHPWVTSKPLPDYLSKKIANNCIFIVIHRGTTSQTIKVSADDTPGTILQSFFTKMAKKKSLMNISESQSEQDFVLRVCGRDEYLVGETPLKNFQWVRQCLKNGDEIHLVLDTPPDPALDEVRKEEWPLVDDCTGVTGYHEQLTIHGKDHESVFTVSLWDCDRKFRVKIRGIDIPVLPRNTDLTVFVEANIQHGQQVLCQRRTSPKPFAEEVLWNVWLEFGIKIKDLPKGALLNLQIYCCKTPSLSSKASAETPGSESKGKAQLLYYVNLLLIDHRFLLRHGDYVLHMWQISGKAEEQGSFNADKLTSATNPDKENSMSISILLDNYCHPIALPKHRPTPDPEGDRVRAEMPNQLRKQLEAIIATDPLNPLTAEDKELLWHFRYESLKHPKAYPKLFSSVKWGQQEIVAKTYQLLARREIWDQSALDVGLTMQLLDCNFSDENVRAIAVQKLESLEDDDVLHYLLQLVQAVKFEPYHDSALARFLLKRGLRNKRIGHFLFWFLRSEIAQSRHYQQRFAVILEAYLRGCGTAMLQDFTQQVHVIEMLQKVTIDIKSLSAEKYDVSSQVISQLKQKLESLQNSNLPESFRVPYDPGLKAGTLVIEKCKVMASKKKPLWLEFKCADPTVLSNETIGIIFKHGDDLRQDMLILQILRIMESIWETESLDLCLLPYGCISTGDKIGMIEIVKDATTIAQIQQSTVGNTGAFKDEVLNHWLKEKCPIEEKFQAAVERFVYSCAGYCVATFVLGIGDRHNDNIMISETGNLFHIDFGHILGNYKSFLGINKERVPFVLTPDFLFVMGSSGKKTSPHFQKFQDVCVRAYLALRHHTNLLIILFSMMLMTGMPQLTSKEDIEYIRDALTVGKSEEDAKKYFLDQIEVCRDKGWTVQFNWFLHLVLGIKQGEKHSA

Q: What does the source list for `CCC(=O)N1CC[C@H](Nc2ncnc3c2CN(c2cnc(OC)c(C(F)(F)F)c2)CC3)C1` [LENIOLISIB]?
A: CLint scaled [1]: 355 mL/min/kg; pIC50 [2]: 7.12; pIC50 [3]: 6.44; pIC50 [4]: 6.04; pIC50 [5]: < 5.00; pIC50 [6]: 4.71; pIC50 [7]: 5.57; pIC50 [8]: 5.39; pIC50 (DOHH-2): 4.53; solubility [9]: 57.9 µM (≈ 26.1 µg/mL); fraction unbound [10]: 0.066; half-life [11]: 15.4 min; solubility [12]: 77.6 µM (≈ 35 µg/mL); pIC50 (SU-DHL-6): 6.11; pIC50 (Pfeiffer [13]): 5.43; pIC50 (SUD4): 5.08; pIC50 (JeKo-1): 4.50; pIC50 (Z-138): 4.51; pIC50 (Rec1): 5.89; Activity (Pfeiffer [14]): 78.31%; Activity (Pfeiffer [15]): 5.7%; Activity (Pfeiffer [16]): 11.23%; Activity (Pfeiffer [17]): 4.76%; Activity (Pfeiffer [18]): 75.9%; Activity (Pfeiffer [19]): 5.53%; Activity (Pfeiffer [20]): 12.88%; Activity (Pfeiffer [21]): 5.69%; inhibition in vivo at 30 mg/kg (Pfeiffer [22]): 53.8%; Activity [23]: 10%
